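These data come from cells grown in 96-well plates and exposed to compound for 48 hours at five concentrations. GI50 marks 50% less growth. TGI marks complete inhibition of growth.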
Assays:
Assay in all cases: DTP human tumour cell line panel, 48 h
[1] = tested on: HCC-2998 colon
[2] = tested on: SF-539 CNS
[3] = tested on: SK-MEL-28 melanoma
[4] = tested on: SN12C renal
[5] = tested on: NCI-H522 lung
[6] = tested on: NCI-H460 lung
[7] = tested on: MOLT-4 leukemia
[8] = tested on: U251 CNS
[9] = tested on: TK-10 renal
[10] = tested on: EKVX NSCLC
[11] = tested on: OVCAR-5 ovarian
[12] = tested on: SNB-75 CNS
[13] = tested on: DU-145 prostate
[14] = tested on: SNB-19 CNS
[15] = tested on: HS 578T breast
[16] = tested on: NCI-H226 lung
[17] = tested on: SW-620 colon
[18] = tested on: M14 melanoma
[19] = tested on: MALME-3M melanoma
[20] = tested on: 786-0 renal
[21] = tested on: MCF7 breast
[22] = tested on: OVCAR-8 ovarian
[23] = tested on: NCI/ADR-RES ovarian
[24] = tested on: RPMI-8226 leukemia
[25] = tested on: UO-31 renal
[26] = tested on: SK-MEL-5 melanoma
[27] = tested on: HL-60(TB) leukemia

For `COC(=O)N[C@H]1CCc2c(Br)c(OC)c(OC)c(OC)c2-c2ccc(SC)c(=O)cc21`, the GI50 [1] was < 0.01 µM, the TGI [1] was 11.5 µM and the GI50 [2] was < 0.01 µM. For the same compound, the TGI [2] was < 0.01 µM, the GI50 [3] was 6.99 µM and the TGI [3] was 25.1 µM. The GI50 [4] was < 0.01 µM, the TGI [4] was 25.5 µM and the GI50 [5] was < 0.01 µM. For the same compound, the TGI [5] was 1.22 µM, the GI50 [6] was < 0.01 µM and the TGI [6] was 10.7 µM. For the same compound, the GI50 [7] was < 0.01 µM, the TGI [7] was 21.7 µM and the GI50 [8] was < 0.01 µM. The TGI [8] was 15 µM, the GI50 [9] was 9.63 µM and the TGI [9] was > 85.9 µM. The GI50 [10] was < 0.01 µM, the TGI [10] was > 85.4 µM and the GI50 [11] was < 0.01 µM. The TGI [11] was > 39.6 µM, the GI50 [12] was < 0.01 µM and the TGI [12] was 20.9 µM. The GI50 [13] was < 0.01 µM, the TGI [13] was 0.145 µM and the GI50 [14] was < 0.01 µM. The TGI [14] was > 49.7 µM, the GI50 [15] was < 0.01 µM and the TGI [15] was > 52.1 µM. The GI50 [16] was < 0.01 µM, the TGI [16] was 10.8 µM and the GI50 [17] was < 0.01 µM. For the same compound, the TGI [17] was 19.7 µM, the GI50 [18] was < 0.01 µM and the TGI [18] was 8.53 µM. The GI50 [19] was 0.0148 µM, the TGI [19] was 30.5 µM and the GI50 [20] was < 0.0163 µM. For the same compound, the TGI [20] was 24.8 µM, the GI50 [21] was < 0.01 µM and the TGI [21] was 12.4 µM. The GI50 [22] was < 0.01 µM, the TGI [22] was > 77.2 µM and the GI50 [23] was 0.0179 µM. For the same compound, the GI50 [24] was < 0.01 µM, the TGI [24] was 5.84 µM and the GI50 [25] was < 0.0281 µM. The TGI [25] was 19 µM, the GI50 [26] was < 0.01 µM and the TGI [26] was 0.0182 µM. The GI50 [27] was < 0.01 µM.
